From patent publication US20260317332A1, “BICYCLIC HETEROCYCLE COMPOUNDS FOR THE TREATMENT OF CANCER” (Hoffmann-La Roche Inc., priority 2023, published 2026) come the findings set out here.

In assay [1] the target is T1, CD73 (Homo sapiens, UniProt P21589).
T1 sequence (P21589 27-574): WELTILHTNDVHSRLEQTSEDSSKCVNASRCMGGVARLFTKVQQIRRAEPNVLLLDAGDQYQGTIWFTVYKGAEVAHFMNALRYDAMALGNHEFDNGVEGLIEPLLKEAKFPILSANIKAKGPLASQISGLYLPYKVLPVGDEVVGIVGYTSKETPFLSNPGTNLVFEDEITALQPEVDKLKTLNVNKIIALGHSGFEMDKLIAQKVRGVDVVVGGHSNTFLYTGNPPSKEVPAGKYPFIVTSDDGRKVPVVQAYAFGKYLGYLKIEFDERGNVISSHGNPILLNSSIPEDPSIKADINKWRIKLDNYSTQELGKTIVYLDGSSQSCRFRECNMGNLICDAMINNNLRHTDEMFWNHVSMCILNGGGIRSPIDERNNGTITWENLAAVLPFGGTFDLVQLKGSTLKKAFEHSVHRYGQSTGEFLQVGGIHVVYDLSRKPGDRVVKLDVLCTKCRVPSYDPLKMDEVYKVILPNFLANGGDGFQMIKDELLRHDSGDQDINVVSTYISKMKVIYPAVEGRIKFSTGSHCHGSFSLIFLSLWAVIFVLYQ
As to the kind of experiment: CD73 Cellular Assay. In kind it is cell-based. Also on record: 40 μL of MDA-MB-231 cells (ATCC, HTB-26, breast cancer); host or cells: MDA-MB-231. Conditions: MDA-MB-231 cells; 200 μM AMP working solution; 45 min at 37° C.; malachite readout; read-out: Cellular IC50 against CD73. How it is done: Compound serial dilution (1:3) was prepared with Echo 555 liquid handler (Labcyte) into the corresponding wells of a 384-well plate. 40 μL of MDA-MB-231 cells (ATCC, HTB-26, breast cancer, final concentration at 20,000 cells/mL) suspended in assay buffer (20 mM HEPES pH 7.4, 137 mM NaCl, 5.4 mM KCl, 1.3 mM CaCl2, 4.2 mM NaHCO3, 1 mg/mL glucose) were added into the corresponding wells of the plate. After incubating with compounds for 30 minutes, 40 μL of AMP working solution (200 μM AMP in assay buffer) was added into each well in the assay plate. The assay plate was then incubated in a 5% CO2 incubator (Thermo Fisher Scientific) at 37° C. for 45 min. After the reaction was completed, 50 μL of the supernatants was collected and transferred into a new 384 well plate. 10 μL of Malachite A was added to each well in the assay plate and incubated for 10 minutes. 10 μL of Malachite B was then added to each corresponding well of the plate and incubated for 30 minutes. Finally the absorbance value was read on the Envision plate reader at […]. Calculation percentage inhibition by using equation {% inhibition=100×[1−(X−MIN)/(MAX−MIN)]} where X equals to the well signal, Max equals signal of neutral control and MIN equals signal of inhibitor control.

The target in assay [2] is T1, CD73. As to the kind of experiment: Human CD73 Biochemical Assay. Conditions: 0.05 nM recombinant CD73; AMP 5.56 μM final; 10 min at room temperature; LC/MS adenosine readout; read-out: Enzymatic IC50 against human CD73. How it is done: The purpose of this assay is to identify and characterize inhibitors of human CD73 enzymatic activity. Compound serial dilution (1:3) was prepared with Echo 555 liquid handler (Labcyte) into the corresponding wells of a 384-well plate. 10 μL of enzyme working solution (containing 0.05 nM recombinant CD73 protein, 10 mM Tris pH 7.5, 100 mM NaCl, 0.01% BSA, 0.2 mM Octyl glucoside and 1 mM NaH2PO4) was added to the assay plate and incubated with compounds for 15 minutes at room temperature. After adding 15 μL of AMP working solution (Containing 10 mM Tris pH 7.5, 100 mM NaCl, 0.01% BSA, 0.2 mM Octyl glucoside, with 5.56 μM of AMP final concentration) and incubate for 10 min at room temperature. Stop the reaction by adding 75 μL of stop solution (5% TCA in H2O containing 250 nM 13C5-adenosine) to each well for 10 min incubation. After centrifugation, 75 μL of the mixture was transferred to a new 384-well plate for LC/MS analysis.
Samples from the 384-well plates, were loaded onto an autosampler deck, then injected with ADDA-LC-MS/MS. The aqueous mobile phase is 0.1% formic acid in water. The organic mobile phase is 0.1% formic acid in acetonitrile. Flow rate is maintained at 0.8 mL/minute using Shimadzu pumps. The column is ACE 5 Phenyl, 50×2.1 mm. The analysis was performed on a SCIEX triple quadrupole mass spectrometer operating in positive ion mode. The effluent from the HPLC column was directly introduced into the electrospray ionization (ESI). Multiple reaction monitoring (MRM) is used to determine analyte and internal standard (IS) responses. The MRM for adenosine is 268.1/136.1, for 13C5-Adenosine (IS) is 273.2/136.2. The data is calculated using the peak area ratio (PAR) semi-quantitative method.

SMILES strings stand for the structures.

`Cn1nc(O[C@H](c2cncc(OCC(F)(F)F)c2)C(F)F)c2cc(-c3c[nH]c(=O)[nH]c3=O)nnc21` (single isomer, unassigned) [Example 8A]: the results for the IC50 at CD73 [1] and at CD73 [2] were 0.66 nM and 0.07 nM, respectively. Take `C[C@H](Oc1nn(C)c2nnc(-c3c[nH]c(=O)[nH]c3=O)cc12)c1cc(OCC(F)(F)F)ncn1` (single isomer, unassigned) [Example 14A]: the IC50 on CD73 [1] amounted to 1.04 nM; on CD73 [2] it was 0.09 nM. For `Cn1nc(O[C@H](c2cc(COC(F)(F)F)ccn2)C(F)F)c2cc(-c3c[nH]c(=O)[nH]c3=O)nnc21` (single isomer, unassigned) [Example 36A] the same measures were 0.62 nM and 0.08 nM. For `C[C@H](OC1CC1)c1cc([C@@H](Oc2nn(C)c3nnc(-c4c[nH]c(=O)[nH]c4=O)cc23)C(F)F)ccn1` (single isomer, unassigned) [Example 37A], the values for the IC50 at CD73 [1] and on CD73 [2] were 0.87 nM and 0.13 nM, respectively. For `C[C@@H](OC1CC1)c1cc([C@@H](Oc2nn(C)c3nnc(-c4c[nH]c(=O)[nH]c4=O)cc23)C(F)F)ccn1` (single isomer, unassigned) [Example 37B] the same measures were 0.84 nM and 0.09 nM. `C[C@H]1COC[C@@H]1Oc1cc([C@@H](Oc2nn(C)c3nnc(-c4c[nH]c(=O)[nH]c4=O)cc23)C(F)F)ccn1` (stereo in doubt) [Example 40, 5-[1-methyl-3-[(1R)-2,2-difluoro-1-[2-[(trans)-4-methyltetrahydrofuran-3-yl]oxy-4-pyridyl]ethoxy]pyrazolo[3,4-c]pyridazin-5-yl]-1H-pyrimidine-2,4-dione]: the IC50 on CD73 [1] stood at 0.57 nM; on CD73 [2], 0.05 nM. For `Cn1nc(O[C@H](c2cccc(OCC(F)(F)F)c2)C(F)F)c2cc(-c3c[nH]c(=O)[nH]c3=O)nnc21` [Example 1, 5-[3-[(1R)-2,2-difluoro-1-[3-(2,2,2-trifluoroethoxy)phenyl]ethoxy]-1-methyl-pyrazolo[3,4-c]pyridazin-5-yl]-1H-pyrimidine-2,4-dione] the same measures were 0.7 nM and 0.08 nM. Take `[2H]C([2H])(Oc1ccnc([C@@H](Oc2nn(C)c3nnc(-c4c[nH]c(=O)[nH]c4=O)cc23)C(F)F)c1)C(F)(F)F` [Example 5, 5-[3-[(1R)-1-[4-(1,1-dideuterio-2,2,2-trifluoro-ethoxy)-2-pyridyl]-2,2-difluoro-ethoxy]-1-methyl-pyrazolo[3,4-c]pyridazin-5-yl]-1H-pyrimidine-2,4-dione]: the IC50 at CD73 [1] stood at 0.52 nM.

As to `[2H]C([2H])([2H])n1nc(O[C@H](c2cc(OCC(F)(F)F)ccn2)C(F)F)c2cc(-c3c[nH]c(=O)[nH]c3=O)nnc21` [Example 6, 5-[3-[(1R)-2,2-difluoro-1-[4-(2,2,2-trifluoroethoxy)-2-pyridyl]ethoxy]-1-(trideuteriomethyl)pyrazolo[3,4-c]pyridazin-5-yl]-1H-pyrimidine-2,4-dione], the IC50 on CD73 [1] worked out at 0.43 nM. Regarding `CC(Oc1ccnc([C@@H](Oc2nn(C)c3nnc(-c4c[nH]c(=O)[nH]c4=O)cc23)C(F)F)c1)C(F)(F)F` (stereo partly drawn) [Example 17, 5-[1-methyl-3-[(1R)-2,2-difluoro-1-[4-(2,2,2-trifluoro-1-methyl-ethoxy)-2-pyridyl]ethoxy]pyrazolo[3,4-c]pyridazin-5-yl]-1H-pyrimidine-2,4-dione], the IC50 at CD73 [1] came out at 0.39 nM. As for `Cn1nc(O[C@H](c2cc(OCC3CC3(F)F)ccn2)C(F)F)c2cc(-c3c[nH]c(=O)[nH]c3=O)nnc21` (stereo partly drawn) [Example 18, 5-[1-methyl-3-[(1R)-1-[4-[(2,2-difluorocyclopropyl)methoxy]-2-pyridyl]-2,2-difluoro-ethoxy]pyrazolo[3,4-c]pyridazin-5-yl]-1H-pyrimidine-2,4-dione], on CD73 [1], the IC50 stood at 0.54 nM. Same read-out and setting: the figure for `Cn1nc(O[C@H](c2cc(OCC3(F)CC3)ccn2)C(F)F)c2cc(-c3c[nH]c(=O)[nH]c3=O)nnc21` [Example 19, 5-[3-[(1R)-2,2-difluoro-1-[4-[(1-fluorocyclopropyl)methoxy]-2-pyridyl]ethoxy]-1-methyl-pyrazolo[3,4-c]pyridazin-5-yl]-1H-pyrimidine-2,4-dione] is 0.59 nM; for `Cn1nc(O[C@H](c2cc(OCC3(C#N)CC3)ccn2)C(F)F)c2cc(-c3c[nH]c(=O)[nH]c3=O)nnc21` [Example 22, 1-[[2-[(1R)-1-[5-(2,4-dioxo-1H-pyrimidin-5-yl)-1-methyl-pyrazolo[3,4-c]pyridazin-3-yl]oxy-2,2-difluoro-ethyl]-4-pyridyl]oxymethyl]cyclopropanecarbonitrile] it is 0.43 nM; for `Cn1nc(O[C@H](c2ccc3c(c2)N(CC(F)(F)F)CCO3)C(F)F)c2cc(-c3c[nH]c(=O)[nH]c3=O)nnc21` [Example 25, 5-[3-[(1R)-2,2-difluoro-1-[4-(2,2,2-trifluoroethyl)-2,3-dihydro-1,4-benzoxazin-6-yl]ethoxy]-1-methyl-pyrazolo[3,4-c]pyridazin-5-yl]-1H-pyrimidine-2,4-dione] it is 1.29 nM.

In the case of `CCOc1cc([C@@H](Oc2nn(C)c3nnc(-c4c[nH]c(=O)[nH]c4=O)cc23)C(F)F)ccn1` [Example 29, 5-[3-[(1R)-1-(2-ethoxy-4-pyridyl)-2,2-difluoro-ethoxy]-1-methyl-pyrazolo[3,4-c]pyridazin-5-yl]-1H-pyrimidine-2,4-dione], on CD73 [1], the IC50 worked out at 0.51 nM.

Consider `Cn1nc(O[C@H](c2ccnc(CN3CCC(F)(F)C3)c2)C(F)F)c2cc(-c3c[nH]c(=O)[nH]c3=O)nnc21` [Example 33, 5-[3-[(1R)-1-[2-[(3,3-difluoropyrrolidin-1-yl)methyl]-4-pyridyl]-2,2-difluoro-ethoxy]-1-methyl-pyrazolo[3,4-c]pyridazin-5-yl]-1H-pyrimidine-2,4-dione], for which the IC50 at CD73 [1] came out at 0.63 nM. For `[2H]C([2H])([2H])C([2H])([2H])Oc1cc([C@@H](Oc2nn(C)c3nnc(-c4c[nH]c(=O)[nH]c4=O)cc23)C(F)F)ncn1` [Example 39A, 5-[3-[(1R)-2,2-difluoro-1-[6-(1,1,2,2,2-pentadeuterioethoxy)pyrimidin-4-yl]ethoxy]-1-methyl-pyrazolo[3,4-c]pyridazin-5-yl]-1H-pyrimidine-2,4-dione], at CD73 [1], the IC50 was determined as 0.65 nM. Regarding `COC1(COc2cc([C@@H](Oc3nn(C)c4nnc(-c5c[nH]c(=O)[nH]c5=O)cc34)C(F)F)ccn2)CC1` [Example 41, 5-[3-[(1R)-2,2-difluoro-1-[2-[(1-methoxycyclopropyl)methoxy]-4-pyridyl]ethoxy]-1-methyl-pyrazolo[3,4-c]pyridazin-5-yl]-1H-pyrimidine-2,4-dione], at CD73 [1], the IC50 was found to be 0.73 nM.

As usually defined, the IC50 is the concentration that inhibits the measured activity by half.
